Experimental data as given in ChEMBL document CHEMBL1155565, “Apramides A-G, novel lipopeptides from the marine cyanobacterium Lyngbya majuscula” (J Nat Prod, 2000).
≈ marks a conversion by molar mass, not a printed value. Calls of active or inactive are those of the source. The rule behind the calls is not given here. Square brackets hold non-standard residues; d marks the D form. Peptide text beside a SMILES is read from it. * marks the point of attachment. Octanoyl(2R-Me,7,8-dehydro) = C=CCCCC[C@@H](C)C(=O)*; Oct7ynoyl(2R-Me) = C#CCCCC[C@@H](C)C(=O)*; NMeY = CN[C@@H](Cc1ccc(O)cc1)C(=O)O; Oct(7)ynoyl = C#CCCCCCC(=O)*; NMeV = CN[C@H](C(=O)O)C(C)C; X2 = c1csc([C@@H]2CCCN2*)n1; NMeA = CN[C@@H](C)C(=O)O; X1 = CN(Cc1nccs1)*

How the values were obtained:
KB = assay: Cytotoxicity against human KB cells; type: functional, cell-based
Papain (Carica papaya) = target: T1, Papain (Carica papaya) (UniProt P00784); assay: Inhibition of Papaya papain
T1 sequence (whole entry): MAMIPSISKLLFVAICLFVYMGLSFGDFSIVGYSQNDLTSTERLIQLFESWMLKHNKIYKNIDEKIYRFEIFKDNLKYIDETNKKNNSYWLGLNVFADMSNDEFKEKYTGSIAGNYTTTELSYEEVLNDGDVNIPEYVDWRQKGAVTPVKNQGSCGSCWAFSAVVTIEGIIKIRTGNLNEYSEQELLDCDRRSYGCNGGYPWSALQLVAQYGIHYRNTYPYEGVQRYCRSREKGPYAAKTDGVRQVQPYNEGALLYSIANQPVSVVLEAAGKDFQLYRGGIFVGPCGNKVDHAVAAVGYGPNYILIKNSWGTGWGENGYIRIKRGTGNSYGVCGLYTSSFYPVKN

[1] = Inhibition of chymotrypsin
[2] = Inhibition of trypsin
[3] = Inhibition of elastase
[4] = Induction of elastase activity
[5] = target: Prothrombin (Homo sapiens) (UniProt P00734); assay: Inhibition of thrombin
LoVo = assay: Cytotoxicity against human LoVo cells; type: functional, cell-based

| SMILES | Activity (KB) | Activity (LoVo) | also measured |
| --- | --- | --- | --- |
| C#CCCCC[C@@H](C)C(=O)N(C)[C@@H](C)C(=O)N(C)[C@H](C(=O)N1CCC[C@H]1C(=O)N(C)[C@H](C(=O)N(C)[C@H](C(=O)N(C)[C@@H](Cc1ccc(OC)cc1)C(=O)N(C)Cc1nccs1)C(C)C)C(C)C)C(C)C ({Oct7ynoyl(2R-Me)}-[NMeA][NMeV]P[NMeV][NMeV][NMeY](Me)-X1) | inactive | inactive | Activity (Papain (Carica papaya)): Active; Activity [1]: Active; Activity [2]: Active; Activity [3]: inactive; Activity [4]: Active; Activity [5]: Active |
| C#CCCCC[C@@H](C)C(=O)N(C)[C@@H](C)C(=O)N(C)[C@H](C(=O)N1CCC[C@H]1C(=O)N(C)[C@H](C(=O)N(C)[C@H](C(=O)N(C)[C@@H](Cc1ccc(OC)cc1)C(=O)N1CCC[C@H]1c1nccs1)C(C)C)C(C)C)C(C)C ({Oct7ynoyl(2R-Me)}-[NMeA][NMeV]P[NMeV][NMeV][NMeY](Me)-X2) | inactive | inactive | – |
| C#CCCCCCC(=O)N(C)[C@@H](C)C(=O)N(C)[C@H](C(=O)N1CCC[C@H]1C(=O)N(C)[C@H](C(=O)N(C)[C@H](C(=O)N(C)[C@@H](Cc1ccc(OC)cc1)C(=O)N(C)Cc1nccs1)C(C)C)C(C)C)C(C)C ({Oct(7)ynoyl}-[NMeA][NMeV]P[NMeV][NMeV][NMeY](Me)-X1) | inactive | inactive | – |
| C#CCCCCCC(=O)N(C)[C@@H](C)C(=O)N(C)[C@H](C(=O)N1CCC[C@H]1C(=O)N(C)[C@H](C(=O)N(C)[C@H](C(=O)N(C)[C@@H](Cc1ccc(OC)cc1)C(=O)N1CCC[C@H]1c1nccs1)C(C)C)C(C)C)C(C)C ({Oct(7)ynoyl}-[NMeA][NMeV]P[NMeV][NMeV][NMeY](Me)-X2) | inactive | inactive | – |
| C=CCCCC[C@@H](C)C(=O)N(C)[C@@H](C)C(=O)N(C)[C@H](C(=O)N1CCC[C@H]1C(=O)N(C)[C@H](C(=O)N(C)[C@H](C(=O)N(C)[C@@H](Cc1ccc(OC)cc1)C(=O)N(C)Cc1nccs1)C(C)C)C(C)C)C(C)C ({Octanoyl(2R-Me,7,8-dehydro)}-[NMeA][NMeV]P[NMeV][NMeV][NMeY](Me)-X1) | inactive | inactive | – |
| C=CCCCC[C@@H](C)C(=O)N(C)[C@@H](C)C(=O)N(C)[C@H](C(=O)N1CCC[C@H]1C(=O)N(C)[C@H](C(=O)N(C)[C@H](C(=O)N(C)[C@@H](Cc1ccc(OC)cc1)C(=O)N1CCC[C@H]1c1nccs1)C(C)C)C(C)C)C(C)C ({Octanoyl(2R-Me,7,8-dehydro)}-[NMeA][NMeV]P[NMeV][NMeV][NMeY](Me)-X2) | inactive | inactive | – |
| C#CCCCC[C@@H](C)C(=O)N(C)[C@@H](C)C(=O)N(C)[C@H](C(=O)N(C)[C@H](C(=O)N(C)[C@H](C(=O)N(C)[C@H](C(=O)N1CCC[C@H]1c1nccs1)C(C)C)C(C)C)C(C)C)C(C)C [APRAMIDE G] ({Oct7ynoyl(2R-Me)}-[NMeA][NMeV][NMeV][NMeV][NMeV]-X2) | – | – | IC50 (KB): 0.033 µg/mL (≈ 0.0398 µM); IC50 (LoVo): 0.011 µg/mL (≈ 0.0133 µM) |
